Test results: PubChem BioAssay (NCI)
Several values for one entry are separate records, joined by “and”; a condition that tells them apart may be missing. Identical values can stand only once.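 Results reflect a 48-hour exposure of cells in 96-well plates to compound at five concentrations. GI50 marks 50% less growth. Definition used: TGI = concentration required for complete inhibition of growth.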

Columns and labels:
Experiment in all cases: NCI-60 cell line screen, 48 h
IGROV1 ovarian = tested on: IGROV1 ovarian
LXFL 529 NSCLC = tested on: LXFL 529 NSCLC
DLD-1 colon = tested on: DLD-1 colon
HCC-2998 colon = tested on: HCC-2998 colon
KM12 colon = tested on: KM12 colon
HCT-15 colon = tested on: HCT-15 colon
MOLT-4 leukemia = tested on: MOLT-4 leukemia
K-562 leukemia = tested on: K-562 leukemia
NCI-H23 lung = tested on: NCI-H23 lung
A549 NSCLC = tested on: A549 NSCLC
COLO 205 colon = tested on: COLO 205 colon
SNB-19 CNS = tested on: SNB-19 CNS
NCI-H226 lung = tested on: NCI-H226 lung
SF-539 CNS = tested on: SF-539 CNS
M19-MEL melanoma = tested on: M19-MEL melanoma
HOP-62 NSCLC = tested on: HOP-62 NSCLC
SW-620 colon = tested on: SW-620 colon
OVCAR-4 ovarian = tested on: OVCAR-4 ovarian
DMS 114 small cell lung = tested on: DMS 114 small cell lung
SN12C renal = tested on: SN12C renal
M14 melanoma = tested on: M14 melanoma
MALME-3M melanoma = tested on: MALME-3M melanoma
U251 CNS = tested on: U251 CNS
HCT-116 colon = tested on: HCT-116 colon
SK-MEL-28 melanoma = tested on: SK-MEL-28 melanoma
NCI-H460 lung = tested on: NCI-H460 lung
HT29 colon = tested on: HT29 colon
OVCAR-5 ovarian = tested on: OVCAR-5 ovarian
UO-31 renal = tested on: UO-31 renal
UACC-257 melanoma = tested on: UACC-257 melanoma
NCI-H522 lung = tested on: NCI-H522 lung
XF 498 CNS = tested on: XF 498 CNS
OVCAR-3 ovarian = tested on: OVCAR-3 ovarian
ACHN renal = tested on: ACHN renal
UACC-62 melanoma = tested on: UACC-62 melanoma
OVCAR-8 ovarian = tested on: OVCAR-8 ovarian
SK-MEL-2 melanoma = tested on: SK-MEL-2 melanoma
TK-10 renal = tested on: TK-10 renal
SK-MEL-5 melanoma = tested on: SK-MEL-5 melanoma
SK-OV-3 ovarian = tested on: SK-OV-3 ovarian
SNB-75 CNS = tested on: SNB-75 CNS
DMS 273 small cell lung = tested on: DMS 273 small cell lung
HOP-92 NSCLC = tested on: HOP-92 NSCLC
SF-268 CNS = tested on: SF-268 CNS
EKVX NSCLC = tested on: EKVX NSCLC
SF-295 CNS = tested on: SF-295 CNS
786-0 renal = tested on: 786-0 renal
KM20L2 colon = tested on: KM20L2 colon
A498 renal = tested on: A498 renal
SR leukemia = tested on: SR leukemia

**Q.** For `CCOC(=O)Oc1c(OC)cc(C(=O)NC2CCc3cc(OC)c(OC)c(OC)c3-c3ccc(SC)c(=O)cc32)cc1OC` (stereo not drawn), which GI50 (IGROV1 ovarian) is on record?
**A.** < 7 nM

**Q.** What about the TGI (IGROV1 ovarian) of the same molecule?
**A.** > 70000 nM

**Q.** And the GI50 (LXFL 529 NSCLC)?
**A.** < 7 nM

**Q.** And the TGI (LXFL 529 NSCLC)?
**A.** 42100 nM

**Q.** And the GI50 (DLD-1 colon)?
**A.** 22.3 nM

**Q.** What about the TGI (DLD-1 colon) of the same molecule?
**A.** > 70000 nM

**Q.** What about the GI50 (HCC-2998 colon) of the same molecule?
**A.** 15.6 nM

**Q.** What about the TGI (HCC-2998 colon) of the same molecule?
**A.** 187 nM and 39 nM

**Q.** And the GI50 (KM12 colon)?
**A.** < 7 nM

**Q.** What about the GI50 (HCT-15 colon) of the same molecule?
**A.** 132 nM

**Q.** What about the TGI (HCT-15 colon) of the same molecule?
**A.** 13600 nM

**Q.** What about the GI50 (MOLT-4 leukemia) of the same molecule?
**A.** < 7 nM

**Q.** What about the TGI (MOLT-4 leukemia) of the same molecule?
**A.** > 70000 nM

**Q.** And the TGI (K-562 leukemia)?
**A.** 774 nM

**Q.** What about the GI50 (NCI-H23 lung) of the same molecule?
**A.** < 7 nM

**Q.** What about the TGI (NCI-H23 lung) of the same molecule?
**A.** 266 nM and 38.8 nM

**Q.** And the GI50 (A549 NSCLC)?
**A.** 28.8 nM

**Q.** What about the TGI (A549 NSCLC) of the same molecule?
**A.** > 70000 nM

**Q.** What about the GI50 (COLO 205 colon) of the same molecule?
**A.** 13.8 nM

**Q.** What about the TGI (COLO 205 colon) of the same molecule?
**A.** 191 nM and 61.3 nM

**Q.** What about the GI50 (SNB-19 CNS) of the same molecule?
**A.** 23.5 nM

**Q.** And the TGI (SNB-19 CNS)?
**A.** 53600 nM

**Q.** And the GI50 (NCI-H226 lung)?
**A.** 7.09 nM

**Q.** What about the TGI (NCI-H226 lung) of the same molecule?
**A.** 97.4 nM and 24.2 nM

**Q.** What about the GI50 (SF-539 CNS) of the same molecule?
**A.** < 7 nM

**Q.** And the TGI (SF-539 CNS)?
**A.** 57 nM and 7.43 nM

**Q.** And the GI50 (M19-MEL melanoma)?
**A.** < 7 nM

**Q.** What about the TGI (M19-MEL melanoma) of the same molecule?
**A.** > 70000 nM

**Q.** What about the GI50 (HOP-62 NSCLC) of the same molecule?
**A.** 32.8 nM

**Q.** And the TGI (HOP-62 NSCLC)?
**A.** 59600 nM

**Q.** And the GI50 (SW-620 colon)?
**A.** < 7 nM

**Q.** And the TGI (SW-620 colon)?
**A.** > 70000 nM

**Q.** What about the GI50 (OVCAR-4 ovarian) of the same molecule?
**A.** 14800 nM

**Q.** And the TGI (OVCAR-4 ovarian)?
**A.** > 70000 nM

**Q.** What about the GI50 (DMS 114 small cell lung) of the same molecule?
**A.** < 7 nM

**Q.** And the TGI (DMS 114 small cell lung)?
**A.** 55.6 nM and < 7 nM

**Q.** And the GI50 (SN12C renal)?
**A.** 13.6 nM

**Q.** What about the TGI (SN12C renal) of the same molecule?
**A.** 25200 nM

**Q.** What about the GI50 (M14 melanoma) of the same molecule?
**A.** 16.6 nM

**Q.** What about the TGI (M14 melanoma) of the same molecule?
**A.** 10700 nM

**Q.** And the GI50 (MALME-3M melanoma)?
**A.** 20.5 nM

**Q.** And the TGI (MALME-3M melanoma)?
**A.** > 70000 nM

**Q.** And the GI50 (U251 CNS)?
**A.** 9.62 nM

**Q.** What about the TGI (U251 CNS) of the same molecule?
**A.** 287 nM and 57.9 nM

**Q.** And the GI50 (HCT-116 colon)?
**A.** < 7 nM

**Q.** What about the TGI (HCT-116 colon) of the same molecule?
**A.** 311 nM and 97.5 nM

**Q.** What about the TGI (SK-MEL-28 melanoma) of the same molecule?
**A.** > 70000 nM

**Q.** And the GI50 (NCI-H460 lung)?
**A.** 16 nM

**Q.** What about the TGI (HT29 colon) of the same molecule?
**A.** 489 nM

**Q.** What about the GI50 (OVCAR-5 ovarian) of the same molecule?
**A.** > 70000 nM

**Q.** And the TGI (OVCAR-5 ovarian)?
**A.** > 70000 nM

**Q.** And the TGI (UO-31 renal)?
**A.** > 70000 nM

**Q.** What about the GI50 (UACC-257 melanoma) of the same molecule?
**A.** < 7 nM

**Q.** And the TGI (UACC-257 melanoma)?
**A.** > 70000 nM

**Q.** What about the TGI (NCI-H522 lung) of the same molecule?
**A.** < 7 nM

**Q.** What about the TGI (XF 498 CNS) of the same molecule?
**A.** 896 nM

**Q.** And the GI50 (OVCAR-3 ovarian)?
**A.** < 7 nM

**Q.** What about the GI50 (ACHN renal) of the same molecule?
**A.** 235 nM

**Q.** What about the TGI (ACHN renal) of the same molecule?
**A.** > 70000 nM

**Q.** And the GI50 (UACC-62 melanoma)?
**A.** 8.81 nM

**Q.** What about the TGI (UACC-62 melanoma) of the same molecule?
**A.** > 70000 nM

**Q.** And the GI50 (OVCAR-8 ovarian)?
**A.** 15.5 nM

**Q.** And the TGI (OVCAR-8 ovarian)?
**A.** 10900 nM

**Q.** And the TGI (SK-MEL-2 melanoma)?
**A.** 83.2 nM

**Q.** And the GI50 (TK-10 renal)?
**A.** 163 nM

**Q.** What about the TGI (TK-10 renal) of the same molecule?
**A.** > 70000 nM

**Q.** And the TGI (SK-MEL-5 melanoma)?
**A.** 916 nM

**Q.** And the GI50 (SK-OV-3 ovarian)?
**A.** 7.17 nM

**Q.** And the TGI (SK-OV-3 ovarian)?
**A.** 466 nM and 55.3 nM

**Q.** What about the GI50 (SNB-75 CNS) of the same molecule?
**A.** < 7 nM

**Q.** What about the TGI (SNB-75 CNS) of the same molecule?
**A.** < 7 nM

**Q.** What about the TGI (DMS 273 small cell lung) of the same molecule?
**A.** > 70000 nM

**Q.** And the TGI (HOP-92 NSCLC)?
**A.** 871 nM

**Q.** And the GI50 (SF-268 CNS)?
**A.** 17.4 nM

**Q.** What about the TGI (SF-268 CNS) of the same molecule?
**A.** 21400 nM

**Q.** And the TGI (EKVX NSCLC)?
**A.** 37900 nM

**Q.** What about the GI50 (SF-295 CNS) of the same molecule?
**A.** 24.2 nM

**Q.** And the GI50 (786-0 renal)?
**A.** 23 nM

**Q.** And the TGI (786-0 renal)?
**A.** 13000 nM

**Q.** And the GI50 (KM20L2 colon)?
**A.** 11.9 nM

**Q.** And the GI50 (A498 renal)?
**A.** 20.6 nM

**Q.** What about the TGI (A498 renal) of the same molecule?
**A.** 514 nM and 62.2 nM

**Q.** What about the TGI (SR leukemia) of the same molecule?
**A.** < 7 nM
